From US20240182531A1, “KV1.3 Blockers” (priority 2021, published 2024)
Where a SMILES comes first, the peptide text is derived from it. Bridges are numbered along the chain shown (N, C = ends). [ ]: non-standard residue; d: D form. Phe(4-NH2) = Nc1ccc(C[C@H](N)C(=O)O)cc1; Nle = CCCC[C@H](N)C(=O)O

Columns and labels:
human Kv1.1 = target: T1, human Kv1.1 (Homo sapiens, UniProt Q09470); test: cell-based; conditions: ratio of patch clamp IC50 values
T1 construct: expressed in transfected cells; host or cells: CHO
T1 sequence (Q09470 whole entry): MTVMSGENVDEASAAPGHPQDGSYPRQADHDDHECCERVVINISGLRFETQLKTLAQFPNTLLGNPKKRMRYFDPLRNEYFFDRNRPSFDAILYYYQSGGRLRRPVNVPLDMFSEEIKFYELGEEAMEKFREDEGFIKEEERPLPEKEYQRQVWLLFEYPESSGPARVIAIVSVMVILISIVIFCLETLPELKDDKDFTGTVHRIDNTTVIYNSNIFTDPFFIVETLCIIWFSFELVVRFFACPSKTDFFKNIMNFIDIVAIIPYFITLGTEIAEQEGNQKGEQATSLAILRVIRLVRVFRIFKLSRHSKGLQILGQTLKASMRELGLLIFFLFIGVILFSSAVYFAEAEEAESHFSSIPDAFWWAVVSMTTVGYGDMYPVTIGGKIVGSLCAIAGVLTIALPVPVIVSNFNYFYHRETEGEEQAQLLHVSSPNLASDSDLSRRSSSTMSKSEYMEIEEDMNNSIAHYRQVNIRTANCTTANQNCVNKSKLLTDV

human Kv1.2 = target: T2, human Kv1.2 (Homo sapiens, UniProt P16389); test: cell-based; conditions: ratio of patch clamp IC50 values
T2 construct: expressed in transfected cells; host or cells: CHO
T2 sequence (P16389 whole entry): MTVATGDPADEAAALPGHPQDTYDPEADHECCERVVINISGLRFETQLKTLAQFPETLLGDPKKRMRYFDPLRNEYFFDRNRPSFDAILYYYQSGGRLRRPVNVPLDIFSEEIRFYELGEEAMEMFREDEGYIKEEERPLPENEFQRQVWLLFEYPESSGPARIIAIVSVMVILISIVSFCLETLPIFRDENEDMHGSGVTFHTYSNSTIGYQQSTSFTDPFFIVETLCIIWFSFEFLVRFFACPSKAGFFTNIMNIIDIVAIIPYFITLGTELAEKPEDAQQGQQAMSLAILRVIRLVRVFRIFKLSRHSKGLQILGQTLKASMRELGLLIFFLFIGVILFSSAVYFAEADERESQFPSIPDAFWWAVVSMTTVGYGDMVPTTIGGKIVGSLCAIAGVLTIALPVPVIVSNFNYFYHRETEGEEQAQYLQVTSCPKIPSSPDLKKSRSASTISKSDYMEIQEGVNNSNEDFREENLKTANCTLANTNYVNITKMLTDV

human Kv1.6 = target: T3, human Kv1.6 (Homo sapiens, UniProt P17658); test: cell-based; conditions: ratio of patch clamp IC50 values
T3 construct: expressed in transfected cells; host or cells: CHO
T3 sequence (P17658 whole entry): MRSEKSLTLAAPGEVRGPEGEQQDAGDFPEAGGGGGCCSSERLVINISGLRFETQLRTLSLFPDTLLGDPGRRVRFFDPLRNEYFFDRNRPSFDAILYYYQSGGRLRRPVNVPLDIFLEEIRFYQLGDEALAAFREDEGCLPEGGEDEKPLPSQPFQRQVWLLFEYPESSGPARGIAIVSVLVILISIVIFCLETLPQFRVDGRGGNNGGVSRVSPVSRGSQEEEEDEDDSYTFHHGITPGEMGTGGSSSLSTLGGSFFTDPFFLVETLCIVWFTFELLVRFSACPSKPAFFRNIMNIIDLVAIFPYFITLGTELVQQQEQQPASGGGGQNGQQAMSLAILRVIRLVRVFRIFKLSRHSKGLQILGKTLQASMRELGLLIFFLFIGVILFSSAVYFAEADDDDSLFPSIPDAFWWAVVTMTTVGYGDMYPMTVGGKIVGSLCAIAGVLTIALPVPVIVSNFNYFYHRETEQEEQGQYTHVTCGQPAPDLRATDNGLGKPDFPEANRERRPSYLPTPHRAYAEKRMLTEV

Rat whole blood = Rat whole blood (Rattus norvegicus, UniProt P15384); type: cell-based; conditions: IL-17A release, thapsigargin, 24 Hr, at least 2 replicates
Rat whole blood, sequence (P15384 whole entry): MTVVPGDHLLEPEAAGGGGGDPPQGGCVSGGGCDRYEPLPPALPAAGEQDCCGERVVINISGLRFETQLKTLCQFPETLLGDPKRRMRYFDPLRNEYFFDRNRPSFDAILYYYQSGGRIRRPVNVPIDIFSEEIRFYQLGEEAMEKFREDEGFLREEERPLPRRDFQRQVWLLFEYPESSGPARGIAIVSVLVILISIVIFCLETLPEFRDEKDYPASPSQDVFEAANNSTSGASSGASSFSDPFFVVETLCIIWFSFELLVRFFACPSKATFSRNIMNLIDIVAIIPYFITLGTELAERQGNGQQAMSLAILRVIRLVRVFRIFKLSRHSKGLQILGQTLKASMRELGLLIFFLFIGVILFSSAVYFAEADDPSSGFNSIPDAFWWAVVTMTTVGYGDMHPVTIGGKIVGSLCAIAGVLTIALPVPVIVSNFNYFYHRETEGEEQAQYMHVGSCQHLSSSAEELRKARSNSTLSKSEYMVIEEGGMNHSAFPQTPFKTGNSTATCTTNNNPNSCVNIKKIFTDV

Row | SMILES | Selectivity ratio Kv1.1/Kv1.3 (human Kv1.1) | Selectivity ratio Kv1.2/Kv1.3 (human Kv1.2) | Selectivity ratio Kv1.6/Kv1.3 (human Kv1.6) | IC50 (Rat whole blood)
1 | CC[C@H](C)[C@@H]1NC(=O)[C@H](C)NC(=O)[C@H](CCCCN)NC(=O)[C@H](CC(C)C)NC(=O)[C@@H]2CSSC[C@@H](C(=O)N[C@@H](Cc3ccc(O)cc3)C(=O)N3CCC[C@H]3C(=O)N[C@@H](CCCNC(=N)N)C(N)=O)NC(=O)[C@H](CCCCN)NC(=O)[C@@H]3CSSC[C@H](NC(=O)[C@H](CCC(=O)O)NC(=O)[C@H](C(C)C)NC(=O)[C@H](CO)NC(=O)[C@H](C)NC(=O)[C@H](CO)NC(=O)[C@@H](NC(=O)[C@H](CCCNC(=N)N)NC(=O)[C@H](CCSC)NC(=O)[C@H](CC(=O)O)NC(=O)[C@H](CCSC)NC(=O)[C@@H](N)CC(N)=O)CSSC[C@H](NC(=O)[C@H](CCCCN)NC(=O)CNC(=O)[C@H](Cc4ccccc4)NC(=O)[C@H](CCCCN)NC(=O)[C@H](CO)NC(=O)CNC1=O)C(=O)N[C@@H](CCSC)C(=O)N[C@@H](CC(N)=O)C(=O)N[C@@H](CCCCN)C(=O)N[C@@H](CCCCN)C(=O)N3)C(=O)N[C@@H](CCCCN)C(=O)N[C@@H](CCC(N)=O)C(=O)N[C@@H](CCCCN)C(=O)N2 [compound 38] (H-NMDMRCSASVECKQKCLKAIGSKFGKCMNKKCKCYPR-NH2; disulfide 6-27, 12-32, 16-34) | >7100 | 237 | 490 | 2.1 nM
2 | CCCC[C@H](NC(=O)[C@H](CC(=O)O)NC(=O)[C@H](CCCC)NC(=O)[C@@H](N)CO)C(=O)N[C@@H](CCCNC(=N)N)C(=O)N[C@H]1CSSC[C@@H]2NC(=O)[C@H](CCCCN)NC(=O)CNC(=O)[C@H](Cc3ccccc3)NC(=O)[C@H]([C@@H](C)CC)NC(=O)[C@H](CO)NC(=O)CNC(=O)[C@H]([C@@H](C)CC)NC(=O)[C@H](C)NC(=O)[C@H](CCCCN)NC(=O)[C@H](CC(C)C)NC(=O)[C@@H]3CSSC[C@@H](C(=O)N[C@@H](Cc4ccc(O)cc4)C(=O)N4CCC[C@H]4C(=O)N[C@@H](CCCNC(=N)N)C(N)=O)NC(=O)[C@H](CCCCN)NC(=O)[C@H](CSSC[C@H](NC(=O)[C@H](CCC(=O)O)NC(=O)[C@H](C(C)C)NC(=O)[C@H](CO)NC(=O)[C@H](C)NC(=O)[C@H](CO)NC1=O)C(=O)NCC(=O)N[C@@H](CCC(N)=O)C(=O)N[C@@H](CCCCN)C(=O)N3)NC(=O)[C@H](CCCCN)NC(=O)[C@H](CCCCN)NC(=O)[C@H](CC(N)=O)NC(=O)[C@H](CCSC)NC2=O [compound 71] (H-S[Nle]D[Nle]RCSASVECGQKCLKAIGSIFGKCMNKKCKCYPR-NH2; disulfide 6-27, 12-32, 16-34) | >27700 | 3438 | >27700 | 0.3 nM
3 | CCCC[C@@H]1NC(=O)[C@@H]2CSSC[C@H](NC(=O)[C@H](CCCNC(=N)N)NC(=O)[C@H](CCCC)NC(=O)[C@H](CC(=O)O)NC(=O)[C@H](CCCC)NC(=O)[C@@H](N)CC(N)=O)C(=O)N[C@@H](CCCNC(=N)N)C(=O)N[C@@H](C)C(=O)N[C@@H](CO)C(=O)N[C@@H](C(C)C)C(=O)N[C@@H](CCC(=O)O)C(=O)N[C@H]3CSSC[C@H](NC(=O)[C@H](CCCCN)NC(=O)[C@H](CCCCN)NC(=O)[C@H](CC(N)=O)NC1=O)C(=O)N[C@@H](CCCCN)C(=O)N[C@H](C(=O)N[C@@H](Cc1ccc(O)cc1)C(=O)N1CCC[C@H]1C(=O)N[C@@H](CCCNC(=N)N)C(N)=O)CSSC[C@H](NC(=O)[C@H](CCCCN)NC(=O)[C@H](CCC(N)=O)NC(=O)[C@H](CCCCN)NC3=O)C(=O)N[C@@H](CC(C)C)C(=O)N[C@@H](CCCCN)C(=O)N[C@@H](C)C(=O)N[C@@H]([C@@H](C)CC)C(=O)NCC(=O)N[C@@H](CO)C(=O)N[C@@H]([C@@H](C)CC)C(=O)N[C@@H](Cc1ccccc1)C(=O)NCC(=O)N[C@@H](CCCCN)C(=O)N2 [compound 46] (H-N[Nle]D[Nle]RCRASVECKQKCLKAIGSIFGKC[Nle]NKKCKCYPR-NH2; disulfide 6-27, 12-32, 16-34) | >18600 | 674 | 1954 | 0.91 nM
4 | CC[C@H](C)[C@@H]1NC(=O)[C@H](C)NC(=O)[C@H](CCCCN)NC(=O)[C@H](CC(C)C)NC(=O)[C@@H]2CSSC[C@@H](C(=O)N[C@@H](Cc3ccc(O)cc3)C(=O)N3CCC[C@H]3C(=O)N[C@@H](CCCNC(=N)N)C(N)=O)NC(=O)[C@H](CCCCN)NC(=O)[C@@H]3CSSC[C@H](NC(=O)[C@H](CCC(=O)O)NC(=O)[C@H](CCCNC(=N)N)NC(=O)[C@H](CO)NC(=O)[C@H](C)NC(=O)[C@H](CO)NC(=O)[C@@H](NC(=O)[C@H](CCCNC(=N)N)NC(=O)[C@H](CCSC)NC(=O)[C@H](CC(=O)O)NC(=O)[C@H](CCSC)NC(=O)[C@@H](N)CC(N)=O)CSSC[C@H](NC(=O)[C@H](CCCCN)NC(=O)CNC(=O)[C@H](Cc4ccccc4)NC(=O)[C@H]([C@@H](C)CC)NC(=O)[C@H](CO)NC(=O)CNC1=O)C(=O)N[C@@H](CCSC)C(=O)N[C@@H](CC(N)=O)C(=O)N[C@@H](CCCCN)C(=O)N[C@@H](CCCCN)C(=O)N3)C(=O)N[C@@H](CCCCN)C(=O)N[C@@H](CCC(N)=O)C(=O)N[C@@H](CCCCN)C(=O)N2 [compound 31] (H-NMDMRCSASRECKQKCLKAIGSIFGKCMNKKCKCYPR-NH2; disulfide 6-27, 12-32, 16-34) | >25900 | 94 | 1778 | 0.68 nM
5 | CCCC[C@H](NC(=O)[C@H](CC(=O)O)NC(=O)[C@H](CCCC)NC(=O)[C@@H](N)CO)C(=O)N[C@@H](CCCNC(=N)N)C(=O)N[C@H]1CSSC[C@@H]2NC(=O)[C@H](CCCCN)NC(=O)CNC(=O)[C@H](Cc3ccccc3)NC(=O)[C@H]([C@@H](C)CC)NC(=O)[C@H](CO)NC(=O)CNC(=O)[C@H]([C@@H](C)CC)NC(=O)[C@H](C)NC(=O)[C@H](CCCCN)NC(=O)[C@H](CC(C)C)NC(=O)[C@@H]3CSSC[C@@H](C(=O)N[C@@H](Cc4ccc(N)cc4)C(=O)N4CCC[C@H]4C(=O)N[C@@H](CCCNC(=N)N)C(N)=O)NC(=O)[C@H](CCCCN)NC(=O)[C@H](CSSC[C@H](NC(=O)[C@H](CCC(=O)O)NC(=O)[C@H](C(C)C)NC(=O)[C@H](CO)NC(=O)[C@H](C)NC(=O)[C@H](CO)NC1=O)C(=O)N[C@@H](CCCCN)C(=O)N[C@@H](CCC(N)=O)C(=O)N[C@@H](CCCCN)C(=O)N3)NC(=O)[C@H](CCCCN)NC(=O)[C@H](CCCCN)NC(=O)[C@H](CC(N)=O)NC(=O)[C@H](CCSC)NC2=O [compound 70] (H-S[Nle]D[Nle]RCSASVECKQKCLKAIGSIFGKCMNKKCKC[Phe(4-NH2)]PR-NH2; disulfide 6-27, 12-32, 16-34) | >12200 | 1720 | >12200 | 0.79 nM
6 | CC[C@H](C)[C@@H]1NC(=O)[C@H](C)NC(=O)[C@H](CCCCN)NC(=O)[C@H](CC(C)C)NC(=O)[C@@H]2CSSC[C@@H](C(=O)N[C@@H](Cc3ccc(O)cc3)C(=O)N3CCC[C@H]3C(=O)N[C@@H](CCCNC(=N)N)C(N)=O)NC(=O)[C@H](Cc3c[nH]cn3)NC(=O)[C@@H]3CSSC[C@H](NC(=O)[C@H](CCC(=O)O)NC(=O)[C@H](C(C)C)NC(=O)[C@H](CO)NC(=O)[C@H](C)NC(=O)[C@H](CO)NC(=O)[C@@H](NC(=O)[C@H](CCCNC(=N)N)NC(=O)[C@H](CCSC)NC(=O)[C@H](CC(=O)O)NC(=O)[C@H](CCSC)NC(=O)[C@@H](N)CC(N)=O)CSSC[C@H](NC(=O)[C@H](CCCCN)NC(=O)CNC(=O)[C@H](Cc4ccccc4)NC(=O)[C@H]([C@@H](C)CC)NC(=O)[C@H](CO)NC(=O)CNC1=O)C(=O)N[C@@H](CCSC)C(=O)N[C@@H](CC(N)=O)C(=O)N[C@@H](CCCCN)C(=O)N[C@@H](CCCCN)C(=O)N3)C(=O)N[C@@H](CCCCN)C(=O)N[C@@H](CCC(N)=O)C(=O)N[C@@H](CCCCN)C(=O)N2 [compound 41] (H-NMDMRCSASVECKQKCLKAIGSIFGKCMNKKCHCYPR-NH2; disulfide 6-27, 12-32, 16-34) | >16100 | 1816 | >16100 | 0.77 nM
7 | CCCC[C@@H]1NC(=O)[C@@H]2CSSC[C@H](NC(=O)[C@H](CCCNC(=N)N)NC(=O)[C@H](CCCC)NC(=O)[C@H](CC(=O)O)NC(=O)[C@H](CCCC)NC(=O)[C@@H](N)CC(N)=O)C(=O)N[C@@H](CO)C(=O)N[C@@H](C)C(=O)N[C@@H](CO)C(=O)N[C@@H](C(C)C)C(=O)N[C@@H](CCC(=O)O)C(=O)N[C@H]3CSSC[C@H](NC(=O)[C@H](CCCCN)NC(=O)[C@H](CCCCN)NC(=O)[C@H](CC(N)=O)NC1=O)C(=O)N[C@@H](CCCCN)C(=O)N[C@H](C(=O)N[C@@H](Cc1ccc(O)cc1)C(=O)N1CCC[C@H]1C(=O)N[C@@H](CCCNC(=N)N)C(N)=O)CSSC[C@H](NC(=O)[C@H](CCCCN)NC(=O)[C@H](CCCCN)NC(=O)[C@H](CCCCN)NC3=O)C(=O)N[C@@H](CC(C)C)C(=O)N[C@@H](CCCCN)C(=O)N[C@@H](C)C(=O)N[C@@H]([C@@H](C)CC)C(=O)NCC(=O)N[C@@H](CO)C(=O)N[C@@H]([C@@H](C)CC)C(=O)N[C@@H](Cc1ccccc1)C(=O)NCC(=O)N[C@@H](CCCCN)C(=O)N2 [compound 49] (H-N[Nle]D[Nle]RCSASVECKKKCLKAIGSIFGKC[Nle]NKKCKCYPR-NH2; disulfide 6-27, 12-32, 16-34) | >4000 | 343 | >4000 | 1.4 nM
